Article PMC3158555, “Cofactor-mediated conformational control in the bifunctional kinase/RNase Ire1” (BMC Biology, 2011)

target: T1, Ire1KR32 (cytosolic kinase/RNase portion of Ire1) (Saccharomyces cerevisiae, UniProt P32361); assay: inhibition of ADP-stimulated RNase cleavage of […]-RNA hairpin; type: biochemical; conditions: competition with 0.2 mM ADP, 3 µM Ire1KR32, 2 mM Mg2+, pH 7.4, 30 °C; kinase ATP pocket; paper prints mmol for mM
T1 construct: cytoplasmic kinase + RNase domains with N-terminal 32-aa extension from the linker to the transmembrane segment; GST fusion (pGEX-6P-2) in E. coli, GST cleaved by PreScission; autophosphorylated (~20 phosphates); homo-oligomerizes
T1 sequence (P32361 641-1115): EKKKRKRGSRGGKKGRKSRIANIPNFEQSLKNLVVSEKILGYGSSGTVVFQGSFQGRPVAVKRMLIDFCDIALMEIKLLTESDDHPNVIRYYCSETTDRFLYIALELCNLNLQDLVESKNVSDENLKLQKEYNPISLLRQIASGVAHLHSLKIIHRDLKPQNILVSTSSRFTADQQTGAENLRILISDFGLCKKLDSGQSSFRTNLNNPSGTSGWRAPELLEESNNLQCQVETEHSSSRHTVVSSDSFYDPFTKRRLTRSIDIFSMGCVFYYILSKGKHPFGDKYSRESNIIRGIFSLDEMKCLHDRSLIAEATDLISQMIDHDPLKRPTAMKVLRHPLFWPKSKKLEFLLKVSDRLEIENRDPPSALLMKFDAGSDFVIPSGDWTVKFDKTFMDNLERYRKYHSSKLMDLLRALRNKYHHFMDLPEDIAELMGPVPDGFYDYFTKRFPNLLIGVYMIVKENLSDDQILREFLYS

Row | Ki | SMILES
1 | 0.1 ± 0.04 mM | Nc1ncnc2c1ncn2[C@@H]1O[C@H](COP(=O)(O)OP(=O)(O)OP(=O)(O)O)[C@@H](O)[C@H]1O [ATP]
2 | 0.2 ± 0.07 mM | Nc1ncnc2c1ncn2[C@@H]1O[C@H](COP(=O)(O)OP(=O)(O)S)[C@@H](O)[C@H]1O (some centres unmarked) [ADPβS]

target: T1, Ire1KR32 (cytosolic kinase/RNase portion of Ire1); assay: RNase activation, hyperbolic fit of kobs versus cofactor ([…]P-RNA hairpin); type: biochemical; conditions: 3 µM Ire1KR32, 2 mM Mg2+, pH 7.4, 30 °C; allosteric activator in kinase ATP pocket

Row | SMILES | Kcof (apparent cofactor binding constant)
3 | Nc1ncnc2c1ncn2[C@@H]1O[C@H](COP(=O)(O)OP(=O)(O)O)[C@@H](O)[C@H]1O [ADP] | ADP bound with an apparent affinity similar to that of ATP
4 | Nc1ncnc2c1ncn2[C@@H]1O[C@H](COP(=O)(O)OP(=O)(O)OP(=O)(O)O)[C@@H](O)[C@H]1O [ATP] | the apparent affinity for AMP was tenfold lower than that observed for ATP
5 | Nc1ncnc2c1ncn2[C@@H]1O[C@H](COP(=O)(O)O)[C@@H](O)[C@H]1O [AMP] | the apparent affinity for AMP was tenfold lower than that observed for ATP
6 | c1cc(Nc2cc(C3CC3)[nH]n2)nc(Nc2ccc3[nH]cnc3c2)n1 [APY29] | APY24 and APY29 activated Ire1 as well as or better than ADP
7 | Nc1ncnc2c1ncn2[C@@H]1O[C@H](COP(=O)(O)OP(=O)(O)OP(O)(O)=S)[C@@H](O)[C@H]1O [ATPγS] | ATPγS bound to Ire1 slightly more weakly than ATP
8 | CCN(CC)CCNC(=O)c1c(C)[nH]c(/C=C2\C(=O)Nc3ccc(F)cc32)c1C [sunitinib] | activated Ire1KR32 to a similar extent as AMP and ATP
